This is an account of results in patent US10195196B2, “1,4-disubstituted pyridazine analogs there of and methods for treating SMN-deficiency-related conditions” (NOVARTIS AG, priority 2012, dated 2019).

For the assay, the system named is SMN protein. Briefly: cellular SMN ELISA (SMN protein elevation). It is filed as cell-based. As to conditions: ELISA condition 2: compound concentration 100 pM-10 uM, myoblast cell line from SMNdelta7 mouse model, 24 hours treatment; for SMN activity Fold: fold activation over DMSO control. Put shortly:
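Readout is fold SMN elevation versus DMSO plus EC50, measured by anti-SMN capture ELISA with 450 nm absorbance. Lysates came from a myoblast line of the SMNdelta7 mouse model after 24 h compound exposure, with dose ranges of 20 nM–10 μM (condition 1) or 100 pM–10 μM (condition 2).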
For orientation: An ELISA detects its analyte on a solid surface through an enzyme-linked reagent.

With `CC1(C)CC(Nc2ccc(-c3ccc(-n4cccn4)cc3O)nn2)CC(C)(C)N1` [Example 30-1, 5-(1H-pyrazol-1-yl)-2-(6-((2,2,6,6-tetramethylpiperidin-4-yl)amino)pyridazin-3-yl)phenol], it took 8 nM to reach a half-maximal effect (EC50) and the “SMN activity Fold” value amounted to 2.99 Fold.
In the same order, the values of `CC1(C)CC(Nc2ccc(-c3ccc(C#N)cc3O)nn2)CC(C)(C)N1` [Example 30-2, 3-hydroxy-4-(6-((2,2,6,6-tetramethylpiperidin-4-yl)amino)pyridazin-3-yl)benzonitrile] are 62 nM and 2.98 Fold.
For `CC1(C)CC(Oc2ccc(-c3ccc(-n4cccn4)cc3O)nn2)CCN1` (stereo not drawn) [Example 31-1, 2-(6-((2,2-dimethylpiperidin-4-yl)oxy)pyridazin-3-yl)-5-(1H-pyrazol-1-yl)phenol], the EC50 (in general, the concentration at which the effect is half-maximal) came to 200 nM and the “SMN activity Fold” value was determined as 3.03 Fold.
`CN(c1ccc(-c2cc(-c3cn[nH]c3)ccc2O)nn1)C1CC(C)(C)NC(C)(C)C1` [Example 32-1, 2-(6-(methyl(2,2,6,6-tetramethylpiperidin-4-yl)amino)pyridazin-3-yl)-4-(1H-pyrazol-4-yl)phenol]: the concentration for a half-maximal effect (EC50) came to 125 nM and the “SMN activity Fold” value came to 2.67 Fold.
In the same order, the values of `CN(c1ccc(-c2cc(-c3cnn4c3CCCC4)ccc2O)nn1)C1CC(C)(C)NC(C)(C)C1` [Example 32-2, 2-(6-(methyl(2,2,6,6-tetramethylpiperidin-4-yl)amino)pyridazin-3-yl)-4-(4,5,6,7-tetrahydropyrazolo[1,5-a]pyridin-3-yl)phenol] are 396 nM and 2.49 Fold.
As to `CN(c1ccc(-c2cc(-c3cnn4c3CNCC4)ccc2O)nn1)C1CC(C)(C)NC(C)(C)C1` [Example 32-3, 2-(6-(methyl(2,2,6,6-tetramethylpiperidin-4-yl)amino)pyridazin-3-yl)-4-(4,5,6,7-tetrahydropyrazolo[1,5-a]pyrazin-3-yl)phenol], the EC50 amounted to 201 nM and the “SMN activity Fold” value came to 2.44 Fold.
In the same order, the values of `CN(c1ccc(-c2cc(-c3cc4ccccc4[nH]3)ccc2O)nn1)C1CC(C)(C)NC(C)(C)C1` [Example 32-4, 4-(1H-indol-2-yl)-2-(6-(methyl(2,2,6,6-tetramethylpiperidin-4-yl)amino)pyridazin-3-yl)phenol] are 168 nM and 2.09 Fold.
With `CN(c1ccc(-c2cc(C3=CCCC3)ccc2O)nn1)C1CC(C)(C)NC(C)(C)C1` [Example 32-5, 4-(cyclopent-1-en-1-yl)-2-(6-(methyl(2,2,6,6-tetramethylpiperidin-4-yl)amino)pyridazin-3-yl)phenol], it took 231 nM to reach a half-maximal effect (EC50) and the “SMN activity Fold” value is 2.52 Fold.
In the same order, the values of `CN(c1ccc(-c2cc(-c3ccn[nH]3)ccc2O)nn1)C1CC(C)(C)NC(C)(C)C1` [Example 32-6, 2-(6-(methyl(2,2,6,6-tetramethylpiperidin-4-yl)amino)pyridazin-3-yl)-4-(1H-pyrazol-3-yl)phenol] are 92 nM and 2.69 Fold.
In the same order, the values of `CN(c1ccc(-c2cc(-c3ccnc(O)c3)ccc2O)nn1)C1CC(C)(C)NC(C)(C)C1` [Example 32-7, 4-(4-hydroxy-3-(6-(methyl(2,2,6,6-tetramethylpiperidin-4-yl)amino)pyridazin-3-yl)phenyl)pyridin-2-ol] are 551 nM and 3.27 Fold.
Turning to `Cn1ccc(-c2ccc(O)c(-c3ccc(OC4CC(C)(C)NC(C)(C)C4)nn3)c2)cc1=O` [Example 32-8, 4-(4-hydroxy-3-(6-((2,2,6,6-tetramethylpiperidin-4-yl)oxy)pyridazin-3-yl)phenyl)-1-methylpyridin-2(1H)-one], a half-maximal effect (EC50) was put at 433 nM and the “SMN activity Fold” value turned out to be 2.61 Fold.
In the same order, the values of `CC1(C)CC(Oc2ccc(-c3cc(-c4ccnc(O)c4)ccc3O)nn2)CC(C)(C)N1` [Example 32-9, 4-(4-hydroxy-3-(6-((2,2,6,6-tetramethylpiperidin-4-yl)oxy)pyridazin-3-yl)phenyl)pyridin-2-ol] are 485 nM and 2.90 Fold.
In the same order, the values of `CN(c1ccc(-c2ccc(-c3cccc4cn[nH]c34)cc2O)nn1)C1CC(C)(C)NC(C)(C)C1` [Example 33-1, 5-(1H-indazol-7-yl)-2-(6-(methyl(2,2,6,6-tetramethylpiperidin-4-yl)amino)pyridazin-3-yl)phenol] are 349 nM and 2.29 Fold.
In the same order, the values of `CN(c1ccc(-c2cc(Cl)c(-c3cn[nH]c3)cc2O)nn1)C1CC(C)(C)NC(C)(C)C1` [Example 34-1, 4-chloro-2-(6-(methyl(2,2,6,6-tetramethylpiperidin-4-yl)amino)pyridazin-3-yl)-5-(1H-pyrazol-4-yl)phenol] are 7 nM and 2.80 Fold.
On to `CN(c1ccc(-c2cc(F)c(-c3cn[nH]c3)cc2O)nn1)C1CC(C)(C)NC(C)(C)C1` [Example 34-2, 4-fluoro-2-(6-(methyl(2,2,6,6-tetramethylpiperidin-4-yl)amino)pyridazin-3-yl)-5-(1H-pyrazol-4-yl)phenol], for which the EC50 was determined as 2 nM and the “SMN activity Fold” value was determined as 2.49 Fold.
In the same order, the values of `CN(c1ccc(-c2cc(-c3c[nH]cn3)c(F)cc2O)nn1)C1CC(C)(C)NC(C)(C)C1` [Example 34-3, 5-fluoro-4-(1H-imidazol-4-yl)-2-(6-(methyl(2,2,6,6-tetramethylpiperidin-4-yl)amino)pyridazin-3-yl)phenol] are 27 nM and 2.56 Fold.
Regarding `CN(c1ccc(-c2cc(-c3cn[nH]c3)c(F)cc2O)nn1)C1CC(C)(C)NC(C)(C)C1` [Example 34-4, 5-fluoro-2-(6-(methyl(2,2,6,6-tetramethylpiperidin-4-yl)amino)pyridazin-3-yl)-4-(1H-pyrazol-4-yl)phenol], the EC50 was 37 nM and the “SMN activity Fold” value is recorded as 2.34 Fold.
`CN(c1ccc(-c2cc(-c3ccn[nH]3)c(F)cc2O)nn1)C1CC(C)(C)NC(C)(C)C1` [Example 34-5, 5-fluoro-2-(6-(methyl(2,2,6,6-tetramethylpiperidin-4-yl)amino)pyridazin-3-yl)-4-(1H-pyrazol-5-yl)phenol]: it took 56 nM to reach a half-maximal effect (EC50) and the “SMN activity Fold” value came to 2.75 Fold.
In the same order, the values of `CN(c1ccc(-c2cc3c(cc2O)C(=O)CC3)nn1)C1CC(C)(C)NC(C)(C)C1` [Example 35-1, 6-hydroxy-5-(6-(methyl(2,2,6,6-tetramethylpiperidin-4-yl)amino)pyridazin-3-yl)-2,3-dihydro-1H-inden-1-one] are 27 nM and 2.79 Fold.
In the same order, the values of `CN(c1ccc(-c2cc3c(cc2O)-c2[nH]ncc2C3)nn1)C1CC(C)(C)NC(C)(C)C1` [Example 35-2, 6-(6-(methyl(2,2,6,6-tetramethylpiperidin-4-yl)amino)pyridazin-3-yl)-1,4-dihydroindeno[1,2-c]pyrazol-7-ol] are 10 nM and 2.84 Fold.
In the same order, the values of `CN(c1ccc(-c2cc3c(cc2O)/C(=N/O)CC3)nn1)C1CC(C)(C)NC(C)(C)C1` [Example 35-3, 6-hydroxy-5-(6-(methyl(2,2,6,6-tetramethylpiperidin-4-yl)amino)pyridazin-3-yl)-2,3-dihydro-1H-inden-1-one oxime] are 11 nM and 2.62 Fold.
